The values below come from publication PMC4152272 (PLoS ONE, 2014).

In test [1] the test system is T1, N188 (Novozyme 188 BGL).
T1 construct: gene bglA; commercial preparation Novozyme 188 (Novozymes), partially purified; N-glycosylated
In words: glucose release, glucose assay reagent, […] nm. The following applies: 50 mM acetate pH 5.0. Type of test: biochemical.

The test system of test [2] is T1, N188 (Novozyme 188 BGL). In words: p-nitrophenol release, […] nm, nonlinear least squares. Type of test: biochemical. The following applies: 50 mM acetate pH 5.0, 50°C, 1 min.

By Km is commonly meant the substrate concentration at which the rate is half of its maximum. For the molecule `OC[C@H]1O[C@@H](O[C@H]2[C@H](O)[C@@H](O)C(O)O[C@@H]2CO)[C@H](O)[C@@H](O)[C@@H]1O` (some centres unmarked) [cellobiose], the Km in the test with N188 (Novozyme 188 BGL) [1] was 2.53 ± 0.506 mM.

Regarding `O=[N+]([O-])c1ccc(O[C@@H]2O[C@H](CO)[C@@H](O)[C@H](O)[C@H]2O)cc1` [pNPG, p-nitrophenyl β-D-glucopyranoside], the Km in the test on N188 (Novozyme 188 BGL) [2] was 1.25 ± 0.164 mM.
